In patent US12447135B2 (University of South Florida, priority 2021, dated 2025):
“Also recorded” adds a separate entry of the source.

Legend:
SK-N-SH cells [1] = test: Senescence β-galactosidase staining; assay type: cell-based, human; settings: Aβ-treated cells, Fenchol
Experimental: After overnight incubation, Aβ 25-32 (25 μM) peptide was added to the cells for 4 h. The Senescence β-Galactosidase Staining Kit (Cell Signaling, USA) was used for the detection of the expression of β-galactosidase activity, following the manufacturer's instructions.

SK-N-SH cells [2] = test: Aβ-induced neurotoxicity, MTT viability assay; assay type: cell-based, human
Experimental: To determine the impact of FFAR2 inhibition on Aβ-induced neuronal cell toxicity, the MTT viability assay was performed (Ronicke et al., 2008). SK-N-SH cells (1×10^3 cells per well) were plated in a 96-well plate containing DMEM medium supplemented with 10% FBS and 1% antibiotics and grown at 37° C. for 24 h. Then, media was removed, and cells were washed with PBS before being replenished with DMEM media containing 1% FBS and 10 μM FFAR2 inhibitor (CATPB, Tocris) and incubated at 37° C. for 2 h. Then, cells were treated with Aβ 25-32 peptide (25 μM, Sigma) and incubated for 4 h. Afterward, the media was replaced with 100 μl of fresh media, and 10 μl of MTT reagent (5 mg/ml in phosphate buffer [pH 7.2]) was added and mixed in each well before an additional 4 h incubation. Then, DMSO (50 μl) was added in each well and mixed thoroughly to dissolve formazan crystals. The absorbance was measured at 570 nm.

[3] = test system: C. elegans CL2355 and CL2122; test: Chemotaxis activity in C. elegans; assay type: in vivo; settings: 10 μg/ml
Experimental: Then the worms were washed twice with S-Basal media and transferred to an NGM plate without E. coli OP50. These plates were divided into four equal sectors, with 1 μl of 0.1% benzaldehyde as an odorant and 1 μl of 1 M sodium azide as an anesthetic to arrest the worms upon reaching the quadrant were added to the original spot. On the opposite side of the attractant, a 1 μl drop of sodium azide and 1 μl of control odorant (100% ethanol) were added onto the NGM agar plate. Around 40-45 worms were placed in the center of each plate, incubated at room temperature for 1 h, and transferred to 4° C. overnight. The chemotaxis index (CI) was scored using the following formula: (number of worms at the attractant location […])/total number of worms on the plate ([…] et al., 2013).

C. elegans = test: Lifespan assay in C. elegans; assay type: in vivo; settings: 10 μM
Experimental: C. elegans was used as a model for determining the impact of selected compounds on aging and AD-like phenotypes. The wild-type (N2) and CL2122 (dvls15 [9pPD30.38) unc-54(vector)+(pCL26)mtl-2::GFP]) were propagated at 20° C. AD transgenic worms model CL2006 (dvls [pCL12(unc-54/human abeta peptide 1-42 minigene)+pRF4), CL4176 (dvls27[myo-3p::A-Beta (1-42)::let-851 3tUTR)+rol-6 (su1006] and CL2355 (dvls 50 [pCL45 9snb-1::Abeta 1-42::3t UTR 9 log)+mtl-2::GFP]) were maintained at 16° C. All strains were cultured on solid nematode growth medium (NGM) consisting of 3 g/L NaCl, 2.5 g/L peptone, 5 mg/L cholesterol, 1 mM CaCl2), 1 mM MgSO4, 25 mM KH2PO4, and 17 g/L agar and seeded with OP50 (Escherichia coli strain) as a food supply. The worms were allowed to grow up to the adult stage, and egg carrying worms were used to isolate age-synchronized eggs using the bleaching method (Porta-de-la-Riva et al., 2012). […] (N2 and CL2122) or 16° C. (CL2006, CL4176, and CL2355). All of the strains used were acquired from the University of Minnesota-Caenorhabditis Genetics Center, which is funded by the NIH Office of Research Infrastructure Programs (P40 OD010440).
To determine the impact of selected compounds on age related decline in brain health, the lifespan of the worms was first measured. The L1 worms were cultured in 96-well plates on S-complete media containing E. coli OP50 and antibiotics (about 10-15 animals per well). […] The 0.6 mM Fluorodeoxyuridine (FUDR; 30 μl) was added to each well after 3 days and animals were monitored every other day for viability. The CL4176 and CL2006 worms were grown at 16° C. and N2 worms were grown at 20° C.

FFAR2 signaling = test: Intracellular calcium assay in SK-N-SH cells; assay type: cell-based, human; settings: 10 μM
Experimental: FFAR2 signaling activation increases intracellular calcium (Falomir-Lockhart et al., 2019). To further determine the activation potential of selected compounds for this signaling, we plated the SK-N-SH cells (1.25×10^3 cells per well) into a dark 96-well plate for 24 h. […] Also, 0.01 M EDTA (Sigma) and […] carbachol were used as negative and additional positive controls, respectively. After 15 min, the cells were treated with […] Direct™ calcium reagent along with […] probenecid and further incubated at 37° C. for 30 min. The fluorescence was measured with excitation at 494 nm and emission at 516 nm using a microplate reader.

In the case of `CC12CCC(C1)C(C)(C)C2O` (stereo not drawn) [Fenchol], the “number of senescent neuronal cells” value (SK-N-SH cells [1]) is reported as “significantly reduced”, the “protection in cell viability with FFAR2 inhibitor” value (SK-N-SH cells [2]; Fenchol together with FFAR2 inhibitor, Aβ) is reported as “no significant protection” and the “Aβ-induced neuronal cell death” value (SK-N-SH cells [2]; vs DMSO controls) is reported as “significantly reduced”. The “memory behavior / chemotaxis index” value ([3]; CL2355 worms overexpressing human Aβ) was “significantly higher; also recorded: preserved”, the chemotaxis index ([3]; control CL2122 strain) was “normal effects” and the survival/lifespan (C. elegans; CL2006 worms overexpressing human Aβ) was “significantly increased”. The survival/lifespan (C. elegans; CL4176 worms overexpressing human Aβ) was “significantly increased”, the lifespan (C. elegans; wild-type N2 worms) was “no significant impacts” and the “increase in intracellular calcium levels” value (FFAR2 signaling) was “highest increase”.
